# In article PMC2997755 (Clinical cancer research : an official journal of the …, 2009):
# Like-named read-outs stand apart in the source and are kept apart here.
# Assays:
# [1] = human, in vivo
# clinical = type: in vivo; conditions: for AUC(0-inf) / AUC(0-t) / clearance / Cmax / half-life: human, plasma
# [2] = Vorinostat serum pharmacokinetics, cycle 1; type: in vivo; conditions: for CL/F / AUC(0-inf) / AUC(0-t) / Cmax / half-life: mean (St dev); for AUC(0-inf) / AUC(0-t) / Cmax / half-life: human, serum, oral; for AUC(0-inf): AUCinf; for AUC(0-t): AUCt
# [3] = Phase I safety and tolerability: DLTs, MTD, adverse events; conditions: sequential schedule dose level -1b; days 6-12, with decitabine 10 mg/m^2/day on days 1-5
# [4] = cited from earlier work
# [5] = 100 mg, Sequential schedule, 100 mg BID, day 9 of cycle 1
# [6] = 200 mg, Concurrent schedule, 200 mg BID, day 4 of cycle 1
# [7] = 200 mg, Sequential schedule, 200 mg BID, day 9 of cycle 1
# [8] = 200 mg, Sequential schedule, 200 mg TID, day 9 of cycle 1
# [9] = 200 mg, Concurrent schedule, 200 mg TID, day 4 of cycle 1
smiles,measurement,setting,value
"Nc1ncn([C@H]2C[C@H](O)[C@@H](CO)O2)c(=O)n1 [decitabine, 5-aza-2'-deoxycytidine]",RP2D (recommended phase II dose),[1],10 mg/m^2/day
same,Pharmacokinetic parameters on day 1 versus day 5 within the same dose level,clinical; either schedule,No significant differences
same,AUC(0-inf),"clinical; intravenous, 10 mg/m2, AUCinf, Concurrent schedule, 10 mg/m^2, Day 1, mean (St dev)",77.6 ng·h/mL
same,AUC(0-inf),"clinical; intravenous, 10 mg/m2, AUCinf, Concurrent schedule, 10 mg/m^2, Day 5, mean (St dev)",57.4 ng·h/mL
same,AUC(0-inf),"clinical; intravenous, 10 mg/m2, AUCinf, Sequential schedule, 10 mg/m^2, Day 1, mean (St dev)",48.4 ng·h/mL
same,AUC(0-inf),"clinical; intravenous, 10 mg/m2, AUCinf, Sequential schedule, 10 mg/m^2, Day 5, mean (St dev)",57.8 ng·h/mL
same,AUC(0-t),"clinical; intravenous, 10 mg/m2, AUCt, Concurrent schedule, 10 mg/m^2, Day 1, mean (St dev)",75.8 ng·h/mL
same,AUC(0-t),"clinical; intravenous, 10 mg/m2, AUCt, Concurrent schedule, 10 mg/m^2, Day 5, mean (St dev)",56.3 ng·h/mL
same,AUC(0-t),"clinical; intravenous, 10 mg/m2, AUCt, Sequential schedule, 10 mg/m^2, Day 5, mean (St dev)",55.8 ng·h/mL
same,clearance,"clinical; intravenous, 10 mg/m2, CL, Concurrent schedule, 10 mg/m^2, Day 1, mean (St dev)",4670 mL/min
same,clearance,"clinical; intravenous, 10 mg/m2, CL, Concurrent schedule, 10 mg/m^2, Day 5, mean (St dev)",5570 mL/min
same,clearance,"clinical; intravenous, 10 mg/m2, CL, Sequential schedule, 10 mg/m^2, Day 1, mean (St dev)",7600 mL/min
same,clearance,"clinical; intravenous, 10 mg/m2, CL, Sequential schedule, 10 mg/m^2, Day 5, mean (St dev)",6130 mL/min
same,Cmax,"clinical; intravenous, 10 mg/m2, Cmax, Concurrent schedule, 10 mg/m^2, Day 1, mean (St dev)",88.6 ng/mL
same,Cmax,"clinical; intravenous, 10 mg/m2, Cmax, Concurrent schedule, 10 mg/m^2, Day 5, mean (St dev)",62.9 ng/mL
same,Cmax,"clinical; intravenous, 10 mg/m2, Cmax, Sequential schedule, 10 mg/m^2, Day 1, mean (St dev)",57.5 ng/mL
same,Cmax,"clinical; intravenous, 10 mg/m2, Cmax, Sequential schedule, 10 mg/m^2, Day 5, mean (St dev)",67.5 ng/mL
same,half-life,"clinical; intravenous, 10 mg/m2, t1/2, Concurrent schedule, 10 mg/m^2, Day 1, mean (St dev)",16.2 min
same,half-life,"clinical; intravenous, 10 mg/m2, t1/2, Concurrent schedule, 10 mg/m^2, Day 5, mean (St dev)",16.2 min
same,half-life,"clinical; intravenous, 10 mg/m2, t1/2, Sequential schedule, 10 mg/m^2, Day 1, mean (St dev)",20.4 min
same,half-life,"clinical; intravenous, 10 mg/m2, t1/2, Sequential schedule, 10 mg/m^2, Day 5, mean (St dev)",22.8 min
same,AUC(0-inf),"clinical; intravenous, 15 mg/m2, AUCinf, Sequential schedule, 15 mg/m^2, Day 1, mean (St dev)",116 ng·h/mL
same,AUC(0-inf),"clinical; intravenous, 15 mg/m2, AUCinf, Sequential schedule, 15 mg/m^2, Day 5, mean (St dev)",116 ng·h/mL
same,AUC(0-t),"clinical; intravenous, 15 mg/m2, AUCt, Sequential schedule, 15 mg/m^2, Day 1, mean (St dev)",112 ng·h/mL
same,AUC(0-t),"clinical; intravenous, 15 mg/m2, AUCt, Sequential schedule, 15 mg/m^2, Day 5, mean (St dev)",114 ng·h/mL
same,clearance,"clinical; intravenous, 15 mg/m2, CL, Sequential schedule, 15 mg/m^2, Day 1, mean (St dev)",5670 mL/min
same,clearance,"clinical; intravenous, 15 mg/m2, CL, Sequential schedule, 15 mg/m^2, Day 5, mean (St dev)",3930 mL/min
same,Cmax,"clinical; intravenous, 15 mg/m2, Cmax, Sequential schedule, 15 mg/m^2, Day 1, mean (St dev)",129 ng/mL
same,Cmax,"clinical; intravenous, 15 mg/m2, Cmax, Sequential schedule, 15 mg/m^2, Day 5, mean (St dev)",142 ng/mL
same,half-life,"clinical; intravenous, 15 mg/m2, t1/2, Sequential schedule, 15 mg/m^2, Day 1, mean (St dev)",22.8 min
same,half-life,"clinical; intravenous, 15 mg/m2, t1/2, Sequential schedule, 15 mg/m^2, Day 5, mean (St dev)",19.8 min
same,AUC(0-inf),"clinical; intravenous, 20 mg/m2, AUCinf, Sequential schedule, 20 mg/m^2, Day 1, mean (St dev)",119 ng·h/mL
same,AUC(0-inf),"clinical; intravenous, 20 mg/m2, AUCinf, Sequential schedule, 20 mg/m^2, Day 5, mean (St dev)",165 ng·h/mL
same,AUC(0-t),"clinical; intravenous, 20 mg/m2, AUCt, Sequential schedule, 20 mg/m^2, Day 1, mean (St dev)",115 ng·h/mL
same,AUC(0-t),"clinical; intravenous, 20 mg/m2, AUCt, Sequential schedule, 20 mg/m^2, Day 5, mean (St dev)",161 ng·h/mL
same,clearance,"clinical; intravenous, 20 mg/m2, CL, Sequential schedule, 20 mg/m^2, Day 1, mean (St dev)",5280 mL/min
same,clearance,"clinical; intravenous, 20 mg/m2, CL, Sequential schedule, 20 mg/m^2, Day 5, mean (St dev)",3920 mL/min
same,Cmax,"clinical; intravenous, 20 mg/m2, Cmax, Sequential schedule, 20 mg/m^2, Day 1, mean (St dev)",135 ng/mL
same,Cmax,"clinical; intravenous, 20 mg/m2, Cmax, Sequential schedule, 20 mg/m^2, Day 5, mean (St dev)",198 ng/mL
same,half-life,"clinical; intravenous, 20 mg/m2, t1/2, Sequential schedule, 20 mg/m^2, Day 1, mean (St dev)",21.6 min
same,half-life,"clinical; intravenous, 20 mg/m2, t1/2, Sequential schedule, 20 mg/m^2, Day 5, mean (St dev)",25.2 min
same,half-life,"clinical; iv, half-life, patients, 1-hour intravenous infusion",~20 min
same,Dose proportionality of Cmax and AUC,"clinical; sequential schedule, increasing doses of decitabine",did not produce dose proportional increases
"O=C(CCCCCCC(=O)Nc1ccccc1)NO [vorinostat, suberoylanilide hydroxamic acid]","Cmax, AUCinf and AUCt, concurrent versus sequential schedule","[2]; 200mg BID dose level, p 0.09, 0.004 and 0.0005",lower in the concurrent schedule
same,CL/F,"[2]; Concurrent schedule, 200 mg BID, day 4 of cycle 1",5.3 (2.3) ml/min
same,CL/F,"[2]; Sequential schedule, 100 mg BID, day 9 of cycle 1",4.3(2.3) ml/min
same,CL/F,"[2]; Sequential schedule, 200 mg BID, day 9 of cycle 1",3(0.7) ml/min
same,CL/F,"[2]; Sequential schedule, 200 mg TID, day 9 of cycle 1",4(3.7) ml/min
same,AUC(0-inf),[2]; [5],446 ng·h/mL
same,AUC(0-t),[2]; [5],424 ng·h/mL
same,Cmax,[2]; [5],165 ng/mL
same,half-life,"[2]; 100 mg, t1/2, Sequential schedule, 100 mg BID, day 9 of cycle 1",83.4 min
same,AUC(0-inf),[2]; [6],708 ng·h/mL
same,AUC(0-inf),[2]; [7],1180 ng·h/mL
same,AUC(0-inf),[2]; [8],1350 ng·h/mL
same,AUC(0-t),[2]; [6],573 ng·h/mL
same,AUC(0-t),[2]; [9],883 ng·h/mL
same,AUC(0-t),[2]; [7],1020 ng·h/mL
same,AUC(0-t),[2]; [8],1090 ng·h/mL
same,Cmax,[2]; [6],214 ng/mL
same,Cmax,[2]; [9],227 ng/mL
same,Cmax,[2]; [7],313 ng/mL
same,half-life,"[2]; 200 mg, t1/2, Concurrent schedule, 200 mg BID, day 4 of cycle 1",143 min
same,half-life,"[2]; 200 mg, t1/2, Sequential schedule, 200 mg BID, day 9 of cycle 1",153 min
same,half-life,"[2]; 200 mg, t1/2, Sequential schedule, 200 mg TID, day 9 of cycle 1",103 min
same,Dose proportionality of AUC and Cmax after a single administration,"[2]; sequential schedule, dose increased from 100 mg to 200 mg",increased proportionaly
same,RP2D (recommended phase II dose),[3],200 mg twice daily
same,"maximum tolerated dose, monotherapy",[4]; patients with hematologic malignancies,250 mg orally thrice a day for 14 days every 21 days
same,"maximum tolerated dose, monotherapy",[4]; patients with solid tumors,200 mg orally twice a day continuously
